The record followed here is PubChem BioAssay (NCI).

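Cultured in 96-well plates, cells were exposed to test compound for 48 hours across five concentrations. TGI: concentration producing complete growth inhibition.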

Some test systems named below: CCRF-CEM leukemia; HCT-15 colon; A549 NSCLC; A498 renal; OVCAR-4 ovarian; LOX IMVI melanoma; MCF7 breast; UACC-62 melanoma; IGROV1 ovarian; UO-31 renal; HL-60(TB) leukemia; M14 melanoma; T-47D breast; OVCAR-5 ovarian; 786-0 renal; SF-539 CNS; HCC-2998 colon.
Holding throughout (assay): NCI-60 cell line screen, 48 h

On to `Cc1cc(C)c(S(=O)(=O)N2CCCN(S(=O)(=O)c3c(C)cc(C)cc3C)OCCCO2)c(C)c1`, for which the TGI in the assay on CCRF-CEM leukemia, in the assay on HCT-15 colon, in the assay with A549 NSCLC, with A498 renal, in the assay with OVCAR-4 ovarian and in the assay on LOX IMVI melanoma was more than 100 µM throughout. In addition, the TGI in the assay on MCF7 breast, with UACC-62 melanoma, in the assay on IGROV1 ovarian, in the assay on UO-31 renal, in the assay on HL-60(TB) leukemia and in the assay on M14 melanoma was more than 100 µM throughout. Moreover, the TGI in the assay on T-47D breast, with OVCAR-5 ovarian and with 786-0 renal was more than 100 µM throughout.

As for `Cc1c(CCN2CCOCC2)c(N2CCOCC2)n2c(nc3ccccc32)c1C#N`, the TGI in the assay on CCRF-CEM leukemia, with HCT-15 colon, in the assay on A549 NSCLC, with A498 renal, in the assay with OVCAR-4 ovarian and in the assay on LOX IMVI melanoma was more than 10 µM throughout. Also, the TGI in the assay on MCF7 breast, in the assay with UACC-62 melanoma, in the assay with IGROV1 ovarian, with UO-31 renal, with HL-60(TB) leukemia and in the assay on M14 melanoma was more than 10 µM throughout. The TGI with T-47D breast, with OVCAR-5 ovarian, in the assay with SF-539 CNS and with 786-0 renal was more than 10 µM each time.

As for `CC(NO)/C(=N/O)c1ccco1` (configuration not stated), the TGI in the assay on CCRF-CEM leukemia, in the assay on HCT-15 colon, in the assay on A549 NSCLC, in the assay on OVCAR-4 ovarian, with MCF7 breast and with UO-31 renal was more than 10 µM each time. Also, the TGI with HL-60(TB) leukemia, with M14 melanoma, with T-47D breast, in the assay on OVCAR-5 ovarian, in the assay with HCC-2998 colon and in the assay on 786-0 renal was more than 10 µM in each case.

With `CCN(CC)c1ccc2cc(C(N)=S)c(=N)oc2c1`, the TGI in the assay with CCRF-CEM leukemia, in the assay with HCT-15 colon, with A549 NSCLC, with OVCAR-4 ovarian, with LOX IMVI melanoma and in the assay with MCF7 breast was more than 100 µM throughout. Moreover, the TGI with UACC-62 melanoma, with IGROV1 ovarian, in the assay on UO-31 renal, in the assay on HL-60(TB) leukemia, with M14 melanoma and in the assay on T-47D breast was more than 100 µM each time. The TGI in the assay on OVCAR-5 ovarian, in the assay on SF-539 CNS, in the assay on HCC-2998 colon and in the assay with 786-0 renal was more than 100 µM each time.

On to `COc1cccc(C2c3cc4c(cc3OC(N3CCOCC3)C2C)OCO4)c1OC` (configuration not stated), for which the TGI in the assay with CCRF-CEM leukemia was 28.8 µM; with HCT-15 colon it was more than 100 µM; in the assay with A549 NSCLC it was more than 100 µM; in the assay with LOX IMVI melanoma it was 12.6 µM; with MCF7 breast, more than 100 µM; in the assay on UACC-62 melanoma it was 85.5 µM. The TGI in the assay with IGROV1 ovarian is 31.2 µM; in the assay with UO-31 renal it was 33.6 µM; with M14 melanoma, 29 µM; in the assay on T-47D breast, 79.1 µM; in the assay on OVCAR-5 ovarian, 43.6 µM; with SF-539 CNS, 30.5 µM. Moreover, the TGI with HCC-2998 colon was 22.8 µM; with 786-0 renal, 52.7 µM.

On to `CN=c1c2c(c3[nH]c4ccccc4c4cnc1c34)NCCC2=O`, for which the TGI with CCRF-CEM leukemia, in the assay on HCT-15 colon, in the assay on A549 NSCLC, with A498 renal, in the assay on OVCAR-4 ovarian and in the assay with MCF7 breast was more than 10 µM throughout. Moreover, the TGI in the assay with IGROV1 ovarian, in the assay on UO-31 renal, with M14 melanoma, with T-47D breast, in the assay on OVCAR-5 ovarian and in the assay on SF-539 CNS was more than 10 µM throughout. Besides, the TGI in the assay with HCC-2998 colon and with 786-0 renal was more than 10 µM in each case.

Regarding `c1ccc(N=C(Nc2ccccc2)N2CCCC2)cc1`, the TGI in the assay on CCRF-CEM leukemia, with HCT-15 colon, in the assay with A549 NSCLC, in the assay with OVCAR-4 ovarian, with LOX IMVI melanoma and in the assay on MCF7 breast was more than 100 µM each time. For the same molecule, the TGI in the assay on UACC-62 melanoma, in the assay on IGROV1 ovarian, with UO-31 renal, with HL-60(TB) leukemia, with M14 melanoma and in the assay on T-47D breast was more than 100 µM in each case. For the same molecule, the TGI in the assay with OVCAR-5 ovarian and in the assay on 786-0 renal was more than 100 µM throughout.

Turning to `N#CC(C#N)=C/C=C(\Sc1c(Cl)c(Cl)nc(Cl)c1Cl)c1ccc(Cl)cc1`, the TGI in the assay with CCRF-CEM leukemia is more than 100 µM; in the assay with HCT-15 colon, 30.1 µM; in the assay on A549 NSCLC it was more than 100 µM; with OVCAR-4 ovarian, more than 100 µM; in the assay on LOX IMVI melanoma, 20.5 µM; in the assay on MCF7 breast, more than 100 µM. The TGI in the assay with UACC-62 melanoma was 30 µM; with IGROV1 ovarian, 53.6 µM; with UO-31 renal, more than 100 µM; in the assay with HL-60(TB) leukemia, more than 100 µM; with M14 melanoma, 38.9 µM; in the assay with T-47D breast, more than 100 µM. Also, the results for the TGI with OVCAR-5 ovarian, in the assay with SF-539 CNS and in the assay on 786-0 renal were 44.6 µM, 41.8 µM and 27.5 µM, respectively.

Take `COc1ccc(/C=C2\CN(C)C/C(=C\c3ccc(OC)cc3)C2=O)cc1`: the TGI in the assay with CCRF-CEM leukemia, in the assay on HCT-15 colon, with A549 NSCLC, in the assay on A498 renal, in the assay on OVCAR-4 ovarian and in the assay on LOX IMVI melanoma was more than 100 µM throughout. Further, the TGI with UACC-62 melanoma, in the assay with IGROV1 ovarian, in the assay on UO-31 renal, in the assay on HL-60(TB) leukemia, in the assay with M14 melanoma and with T-47D breast was more than 100 µM each time. Moreover, the TGI in the assay with OVCAR-5 ovarian, with SF-539 CNS, with HCC-2998 colon and in the assay on 786-0 renal was more than 100 µM throughout.
